In patent publication US10155021B2, “Antimicrobial 4-oxoquinolizines” (Emergent Product Development Gaithersburg Inc., priority 2011, dated 2018):
≈ marks a conversion by molar mass, not a printed value. Like-named read-outs stand apart in the source and are kept apart here.

Key:
A. baumannii J2 = assay: MIC without and with sub-inhibitory polymyxin B (Example 4); type: cell-based, Acinetobacter baumannii; settings: for MIC without PB/MIC + PB: A. baumannii J2, ratio; for MIC: Acinetobacter baumannii, J2, A. baumannii J2, without polymyxin B
A. baumannii A472 [1] = assay: MIC determination for Acinetobacter strains (Example 3); type: cell-based; settings: LEV R, CIP R, MRP I, IMP I, AMK R, TET R
A. baumannii A473 [2] = assay: MIC without and with sub-inhibitory polymyxin B (Example 4); type: cell-based, Acinetobacter baumannii; settings: for MIC: Acinetobacter baumannii, A473, A. baumannii A473, without polymyxin B, read-out: MIC without PB
A. baumannii A329 [3] = assay: MIC determination for Acinetobacter strains (Example 3); type: cell-based; settings: LEV R, CIP R, MRP R, IMP R, AMK R, TET R
[4] = system: resistant strains of A. baumannii and one strain of Acinetobacter sp.; assay: MIC without and with sub-inhibitory polymyxin B, whole panel / MIC ranges (Example 4; also strains not listed separately); type: cell-based; settings: for MIC +0.06 μg/ml PB: +0.06 μg/ml polymyxin B; for MIC without PB/MIC + PB: ratio; for MIC +[…] PB: +[…] polymyxin B; for MIC: Acinetobacter baumannii
A. baumannii A489 = assay: MIC without and with sub-inhibitory polymyxin B (Example 4); type: cell-based, Acinetobacter baumannii; settings: for MIC +[…] PB / MIC without PB/MIC + PB: A. baumannii A489; for MIC +[…] PB: +[…] polymyxin B; for MIC without PB/MIC + PB: ratio; for MIC: Acinetobacter baumannii, A489, A. baumannii A489, without polymyxin B, read-out: MIC without PB
A. baumannii A472 [5] = assay: Preliminary MBC without and with sub-inhibitory polymyxin B (Example 4); type: cell-based, Acinetobacter baumannii; settings: for MBC +[…] PB: A. baumannii A472, +[…] polymyxin B; for MBC: Acinetobacter baumannii, A472, A. baumannii A472, without polymyxin B, read-out: MBC without PB
A. baumannii A329 [6] = assay: MIC without and with sub-inhibitory polymyxin B (Example 4); type: cell-based, Acinetobacter baumannii; settings: for MIC: Acinetobacter baumannii, A329, A. baumannii A329, without polymyxin B, read-out: MIC without PB
A. baumannii A473 [7] = assay: Preliminary MBC without and with sub-inhibitory polymyxin B (Example 4); type: cell-based, Acinetobacter baumannii; settings: for MBC: Acinetobacter baumannii, A473, A. baumannii A473, without polymyxin B, read-out: MBC without PB

C[C@@H](O)[C@H]1C(=O)N2C(C(=O)O)=C(SCCN=CN)C[C@H]12 [Imipenem, reference compound]
MIC without PB/MIC + PB (A. baumannii J2; 1st experiment): ≥32 | MIC without PB/MIC + PB (A. baumannii J2; 2nd experiment): ≥64 | MIC (A. baumannii J2; 1st experiment, read-out: MIC without PB): 4 µg/mL (≈ 13.4 µM) | MIC (A. baumannii J2; 2nd experiment, MIC read with alamar blue, read-out: MIC without PB, read with alamar blue): 4 µg/mL (≈ 13.4 µM) | MIC (A. baumannii J2; 2nd experiment, visual reading, read-out: MIC without PB): 8 µg/mL (≈ 26.7 µM) | MIC (A. baumannii A472 [1]): 16 µg/mL (≈ 53.4 µM) | MIC +0.06 μg/ml PB (A. baumannii A473 [2]; A. baumannii A473, +0.06 μg/ml polymyxin B, 2nd experiment, visual reading): 4 µg/mL | MIC without PB/MIC + PB (A. baumannii A473 [2]; A. baumannii A473, ratio, PB 0.06 μg/ml, 2nd experiment): 8 | MIC (A. baumannii A473 [2]; 1st experiment): 32 µg/mL (≈ 107 µM) | MIC (A. baumannii A473 [2]; 2nd experiment, visual reading): 32 µg/mL (≈ 107 µM) | MIC (A. baumannii A329 [3]): 128 µg/mL (≈ 428 µM) | Range ratios MIC without PB/MIC with PB 01-10-2008 n = 8 ([4]; 1st experiment, 8 strains): 1-64 | Range ratios MIC without PB/MIC with PB 14-10-2008 n = 11 ([4]; 2nd experiment, 11 strains): 1-256 | MIC +0.06 μg/ml PB ([4]; A. baumannii A14, 1st experiment): 1 µg/mL | MIC +0.06 μg/ml PB ([4]; A. baumannii A14, 2nd experiment, visual reading): 1 µg/mL | MIC without PB/MIC + PB ([4]; A. baumannii A14, PB 0.06 μg/ml, 1st experiment): 1 | MIC without PB/MIC + PB ([4]; A. baumannii A14, PB 0.06 μg/ml, 2nd experiment): 1 | MIC +[…] PB ([4]; A. baumannii NCTC 13301, 1st experiment): 16 µg/mL (≈ 53.4 µM) | MIC +[…] PB ([4]; A. baumannii NCTC 13301, 2nd experiment, visual reading): 1 µg/mL (≈ 3.34 µM) | MIC without PB/MIC + PB ([4]; A. baumannii NCTC 13301, PB […], 1st experiment): 8 | MIC without PB/MIC + PB ([4]; A. baumannii NCTC 13301, PB […], 2nd experiment): 128 | MIC ([4]; A. baumannii A14, without polymyxin B, 1st experiment, read-out: MIC without PB): 1 µg/mL (≈ 3.34 µM) | MIC ([4]; A. baumannii A14, without polymyxin B, 2nd experiment, visual reading, read-out: MIC without PB): 1 µg/mL (≈ 3.34 µM) | MIC ([4]; NCTC13301, A. baumannii NCTC 13301, without polymyxin B, 1st experiment, read-out: MIC without PB): 128 µg/mL (≈ 428 µM) | MIC ([4]; NCTC13301, A. baumannii NCTC 13301, without polymyxin B, 2nd experiment, visual reading, read-out: MIC without PB): 128 µg/mL (≈ 428 µM) | MIC ([4]; read-out: MIC range without PB 01-10-2008 n = 8, without polymyxin B, 1st experiment, 8 strains): 1 to 128 µg/mL (≈ 3.34 to 428 µM) | MIC range with PB ([…] MIC) 01-10-2008 n = 8 ([4]; with polymyxin B […] MIC, 1st experiment, 8 strains): <0.125-16 μg/ml | MIC +[…] PB (A. baumannii A489; 1st experiment): 2 µg/mL (≈ 6.68 µM) | MIC +[…] PB (A. baumannii A489; 2nd experiment, visual reading): 0.25 µg/mL (≈ 0.835 µM) | MIC without PB/MIC + PB (A. baumannii A489; 1st experiment): 64 | MIC without PB/MIC + PB (A. baumannii A489; 2nd experiment): 256 | MIC (A. baumannii A489; 1st experiment): 128 µg/mL (≈ 428 µM) | MIC (A. baumannii A489; 2nd experiment, visual reading): 64 µg/mL (≈ 214 µM) | MBC +[…] PB (A. baumannii A472 [5]; 1st experiment): 0.25 µg/mL (≈ 0.835 µM) | MBC +[…] PB (A. baumannii A472 [5]; 2nd experiment): 0.25 µg/mL (≈ 0.835 µM) | MBC (A. baumannii A472 [5]; 1st experiment): 16 µg/mL (≈ 53.4 µM) | MBC (A. baumannii A472 [5]; 2nd experiment): 8 µg/mL (≈ 26.7 µM) | MIC +0.06 μg/ml PB (A. baumannii A329 [6]; A. baumannii A329, +0.06 μg/ml polymyxin B, 2nd experiment, visual reading): 128 µg/mL | MIC without PB/MIC + PB (A. baumannii A329 [6]; A. baumannii A329, ratio, PB 0.06 μg/ml, 2nd experiment): ≥1 | MIC (A. baumannii A329 [6]; 1st experiment): 128 µg/mL (≈ 428 µM) | MIC (A. baumannii A329 [6]; 2nd experiment, visual reading): > 128 µg/mL | MBC +0.06 μg/ml PB (A. baumannii A473 [7]; A. baumannii A473, +0.06 μg/ml polymyxin B, 2nd experiment): 4 µg/mL | MBC (A. baumannii A473 [7]; 1st experiment): 32 µg/mL (≈ 107 µM) | MBC (A. baumannii A473 [7]; 2nd experiment): 32 µg/mL (≈ 107 µM)
